Measurements from PMC11474028, “Lipopeptide antibiotics disrupt interactions of undecaprenyl phosphate with UptA” (Proceedings of the National Academy of Sciences of the …, 2024).

Target: UptA (Bacillus subtilis, UniProt O31823)
Assay: Native MS of phospholipid binding to UptA
Details: 4 µM UptA with 10 µM lipid (stated for a15:0-i15:0 lipids); mean of three independent replicates
From the text: Proteins belonging to the DedA family are a widespread family of transporters and are proposed to flip diverse lipids, including carrier lipids and membrane phospholipids. We therefore probed the interaction of UptA with membrane phospholipids to understand whether the latter could modulate its function. For this purpose, we selected anionic phosphatidylglycerols (PG) and zwitterionic phosphatidylethanolamines (PE), representing the major classes of phospholipid headgroups found in B. subtilis ([41], [42]). We recorded mass spectra of solutions containing 4 µM UptA incubated with 10 µM a15:0-i15:0 PE and 10 µM a15:0-i15:0 PG (a15:0, anteiso-pentadecanoic acid; i15:0, iso-pentadecanoic acid). The fatty acid composition of these lipids closely mimics those of native B. subtilis lipids (see below). The resulting spectra display peaks corresponding to UptA in apo and lipid-bound forms in both cases (Fig. 4 A and B). […] We therefore hypothesize that UptA interacts more favorably with PG than with PE.
To verify the lipid binding preference of UptA with more native-like lipids, we prepared lipid extracts from B. subtilis membranes (Materials and Methods). We then incubate an aliquot of the resulting crude lipids (SI Appendix, Fig. S8) with UptA. The spectra yielded peaks assigned to UptA in complex with cardiolipins (~1,326 Da) and a range of phospholipids, predominantly 694 Da, 721 Da, 748 Da, and 776 Da species (Fig. 4 D and E). To identify these lipids, we performed tandem MS/MS, isolating the lipid species and subjecting it to collisional activation. […] The fatty acid fragments are mixed populations, predominantly 15:0-15:0, 15:0-17:0, 16:0-16:0, and 16:0-18:1 (SI Appendix, Fig. S9) which are the typical fatty acids from B. subtilis membrane phospholipids ([42]). We therefore conclude that UptA interacts more favorably with the anionic cardiolipins and phosphatidylglycerols than with the zwitterionic phosphatidylethanolamines in the membrane lipid extracts.
Detailed experimental procedures are provided in SI Appendix. Briefly, UptA (wild type and mutants) was expressed in E. coli C43(DE3) cells (Lucigen) with GFP fusion on the C-terminus and solubilized from the membrane fraction by n-dodecyl-β-D-maltopyranoside (DDM). After purification by affinity chromatography, the GFP was cleaved by TEV protease and removed, and UptA was further purified by size-exclusion chromatography in a buffer containing 20 mM Tris-HCl (pH 8.0), 200 mM NaCl, 0.02% DDM. Before measurements, proteins were buffer-exchanged into 0.05% LDAO, 200 mM ammonium acetate at the desired pH using a centrifugal buffer exchange device (Micro Bio-Spin 6, Bio-Rad). Stock solutions of lipids were prepared from chloroform/methanol solution by evaporating aliquots of known volume in a SpeedVac. After drying, the lipid films were weighed and resuspended to a final concentration of 0.5 mM in 200 mM ammonium acetate and 0.05% LDAO by vertexing. Stock solutions of 0.5 mM amphomycin, aspartocin D, daptomycin, polymyxin B, polymyxin E, and bacitracin were made in the same buffer. All experiments were repeated three times from newly prepared stock solutions. Native mass spectrometry was performed on a Q-Exactive hybrid quadrupole-Orbitrap mass spectrometer (Thermo Fisher Scientific, Bremen, Germany), and lipid identification was performed on an Orbitrap Eclipse Tribrid mass spectrometer (Thermo). […]
Lipid extracts from B. Subtilis
B. subtilis strain 168 (ATCC 23857) was cultivated in […] LB media at 37 °C until OD600 nm 1.2 under aurobic conditions. Cells were harvested by centrifugation at 4,000 g for 20 minutes and resuspended in 20 mM Tris-HCl (pH 8.0), 150 mM NaCl. Cells were lysed by 5-6 passes through a microfluidizer at 20,000 psi. The lysates were clarified by centrifugation at 4,000 g for 10 minutes, and the totoal membrane was pelleted at 120,000 g for 1 h. The membrane pellet was ressupended […]

Sequence of UptA (O31823 whole entry): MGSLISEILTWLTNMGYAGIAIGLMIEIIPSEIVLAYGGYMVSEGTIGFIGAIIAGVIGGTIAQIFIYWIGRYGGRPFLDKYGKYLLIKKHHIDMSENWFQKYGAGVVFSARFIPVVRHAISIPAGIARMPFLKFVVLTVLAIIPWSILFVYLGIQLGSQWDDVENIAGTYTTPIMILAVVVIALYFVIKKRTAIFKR

## CC(C)=CCC/C(C)=C/CC/C(C)=C/CC/C(C)=C\CC/C(C)=C\CC/C(C)=C\CC/C(C)=C\CC/C(C)=C\CC/C(C)=C\CC/C(C)=C\CC/C(C)=C\COP(=O)(O)O [C55-P, undecaprenyl phosphate]
  mean relative intensity of UptA in complex with phospholipid, comparison (in words): more intensely than any of these diacylglycerol phospholipids
